Key:
[1] = system: AgRP neurons in the arcuate nucleus of hypothalamus (ARH); experiment: Whole-cell patch-clamp slice electrophysiology, AgRP neurons; type: cell-based, mice
Experimental: (§1) Slice electrophysiology studies. Several genetic mouse strains were used for electrophysiological recordings from identified neural populations. These included AgRP-IRES-Cre/Rosa26-LSL-tdTOMATO mice for recordings from AgRP neurons in the arcuate nucleus of hypothalamus (ARH); POMC-CreER/Rosa26-LSL-tdTOMATO mice (with 200 mg/kg tamoxifen induction at 8-12 weeks) were used for recordings from POMC neurons in the ARH; SF1-Cre/Rosa26-LSL-tdTOMATO mice were used for recordings from SF1 neurons in the ventromedial hypothalamus (VMH); TPH2-CreER/Rosa26-LSL-tdTOMATO mice (with 200 mg/kg tamoxifen induction at 8-12 weeks) were used for recording from 5-HT neurons in the dorsal raphe nucleus (DRN). Mice (males and females, 8-16 weeks old) were anesthetized with isoflurane and transcardially perfused with a modified ice-cold sucrose-based cutting solution (pH 7.4; containing 10 mM NaCl, 25 mM NaHCO3, 195 mM sucrose, 5 mM glucose, 2.5 mM KCl, 1.25 mM NaH2PO4, 2 mM sodium pyruvate, 0.5 mM CaCl2, and 7 mM MgCl2, bubbled continuously with 95% O2 and 5% CO2). The mice were then decapitated, and the entire brain was removed and immediately submerged in the cutting solution. Coronal slices (220 μm) were cut with a Microm HM 650V vibratome (Thermo Scientific). Brain slices containing the desired region (ARH, VMH, or DRN) were collected for each corresponding mouse, and recordings were made at levels throughout this brain region. The slices were recovered for ˜30 minutes at 32° C. and then maintained at room temperature for another 1 hour in oxygenated (95% O2 and 5% CO2) artificial cerebrospinal fluid (ACSF, pH 7.4; containing 126 mM NaCl, 2.5 mM KCl, 2.4 mM CaCl2, 1.2 mM NaH2PO4, 1.2 mM MgCl2, 11.1 mM glucose, and 21.4 mM NaHCO3) before recording.
(§2) Slices were transferred to the recording chamber at 32° C. and perfused continuously with oxygenated ACSF at a flow rate of 1.8-2.0 ml/min. […] Recordings were made using a MultiClamp 700B amplifier (Axon Instruments), sampled using Digidata 1440A, and analyzed offline with pClamp 10.3 software (Axon Instruments). Series resistance was monitored during the recording, and the values were generally <10 MO and were not compensated. The liquid junction potential was monitored and corrected. […] To ensure each recorded neuron receive same amount of Lac-Phe, the neurons located on the surface of the slice were selected to record and the puff pipette was always put at a 100 μm horizontal and 100 μm vertical distance from the recorded neurons. […] Each neuron was recorded for at least 1 minute at baseline and only the neurons with stable baseline were used to test the Lac-Phe treatment. […]

[2] = Chronic 10-day Lac-Phe administration to DIO mice (food intake, body weight, GTT, tissue weights); type: in vivo
Experimental: (§3) General animal information. Animal experiments were performed according to procedure approved by the Stanford University Administrative Panel on Laboratory Animal Care (APLAC). Mice were maintained in 12-hr light-dark cycles at 22° C. and ˜50% relative humidity and fed a standard irradiated rodent chow diet. Where indicated, high-fat diet (D12492, Research Diets 60% kcal from fat) was used. C57BL/6J (stock no. 000664) and C57BL/6J DIO mice (stock no. 380050) were purchased from Jackson Laboratory. C57BL/6NCrl (stock no. 027) mice were purchased from Charles River Laboratory. Whole body CNDP2 knockout mice (catalog number, C57BL/6NCrl-Cndp2em1(IMPC)Mbp/Mmucd, RRID: MMRRC_043492-UCD) were obtained from the Mutant Mouse Regional Resource Center, a NCRR-NIH funded strain repository. For in vivo injection of mice with compounds including Lac-Phe, lactate, and phenylalanine, compounds were dissolved in 18:1:1 (by volume) of saline/Kolliphor EL (Sigma Aldrich)/DMSO. Compounds were administered to mice daily via intraperitoneal injections at 5 μl/g body weight at the indicated doses. For all injection experiments, mice were mock injected with the vehicle for 3-5 days until body weights have stabilized. For glucose tolerance tests, mice were fasted for 6 hours then injected with glucose at 10 μl/g body weight. A dose of 1 g/kg was used for the GTT of vehicle and Lac-Phe treated obese mice.

[3] = Acute Lac-Phe administration to DIO mice in metabolic chambers; type: in vivo; details: single 50 mg/kg IP
Experimental: as §3

[4] = 7-day comparison of Lac-Phe with lactate and phenylalanine in DIO mice; type: in vivo; details: 50 mg/kg IP daily, 13-week male DIO mice
Experimental: as §3

[5] = 9-day Lac-Phe treatment of 18 week DIO mice (FIG. 17); type: in vivo; details: 50 mg/kg/day IP
Experimental: as §3

[6] = system: serotonin (5-HT)-positive neurons in the dorsal raphe nuclei (DRN); experiment: Whole-cell patch-clamp slice electrophysiology, 5-HT neurons; type: cell-based, mice; details: 50 μM
Experimental: (§4) Slice electrophysiology studies. Several genetic mouse strains were used for electrophysiological recordings from identified neural populations. These included AgRP-IRES-Cre/Rosa26-LSL-tdTOMATO mice for recordings from AgRP neurons in the arcuate nucleus of hypothalamus (ARH); POMC-CreER/Rosa26-LSL-tdTOMATO mice (with 200 mg/kg tamoxifen induction at 8-12 weeks) were used for recordings from POMC neurons in the ARH; SF1-Cre/Rosa26-LSL-tdTOMATO mice were used for recordings from SF1 neurons in the ventromedial hypothalamus (VMH); TPH2-CreER/Rosa26-LSL-tdTOMATO mice (with 200 mg/kg tamoxifen induction at 8-12 weeks) were used for recording from 5-HT neurons in the dorsal raphe nucleus (DRN). […]
(§5) Slices were transferred to the recording chamber at 32° C. and perfused continuously with oxygenated ACSF at a flow rate of 1.8-2.0 ml/min. […] Recordings were made using a MultiClamp 700B amplifier (Axon Instruments), sampled using Digidata 1440A, and analyzed offline with pClamp 10.3 software (Axon Instruments). Series resistance was monitored during the recording, and the values were generally <10 MO and were not compensated. The liquid junction potential was monitored and corrected. […] Each neuron was recorded for at least 1 minute at baseline and only the neurons with stable baseline were used to test the Lac-Phe treatment. […]

[7] = system: POMC neurons in the ARH; experiment: Whole-cell patch-clamp slice electrophysiology, POMC neurons; type: cell-based, mice
Experimental: as §1, with “Coronal slices (220 μm) were cut with a Microm HM 650V vibratome (Thermo Scientific). Brain slices containing the desired region (ARH, VMH, or DRN) were collected for each corresponding mouse, and recordings were made at levels throughout this brain region. The slices were recovered for ˜30 minutes at 32° C. and then maintained at room temperature for another 1 hour in oxygenated (95% O2 and 5% CO2) artificial cerebrospinal fluid (ACSF, pH 7.4; containing 126 mM NaCl, 2.5 mM KCl, 2.4 mM CaCl2, 1.2 mM NaH2PO4, 1.2 mM MgCl2, 11.1 mM glucose, and 21.4 mM NaHCO3) before recording.” left out
as §2

[8] = system: SF1-positive neurons of the ventromedial hypothalamic nucleus (VMH); experiment: Whole-cell patch-clamp slice electrophysiology, SF1 neurons; type: cell-based, mice; details: 50 μM
Experimental: as §4, §5

[9] = Plasma Lac-Phe level after intraperitoneal injection; type: in vivo; details: C57BL/6J DIO, mouse, 50 mg/kg IP, DIO mice, mean±SEM, read-out: plasma levels 30 min post injection
Experimental: as §3, with “mice. […]” for “mice.”

[10] = system: RAW264.7 cells; experiment: In vitro Lac-Phe production assay with added lactate, RAW264.7; type: cell-based, murine; details: lactate 25 mM in conditioned media
Experimental: Cell line cultures. All cell lines were obtained from ATCC and grown at 37° C. with 5% CO2. RAW 264.7, HEK293T, HEK293A, C2C12, F442A, 3T3-L1, Caco2, and SW48 were grown in Dulbecco's modified Eagle's medium (DMEM) with 10% fetal bovine serum (FBS) and penicillin/streptomycin (pen/strep). AML-12 cells were grown in DMEM with 10% FBS and pen/strep supplemented with Insulin-Transferrin-Selenium. T84 cells were grown in Dulbecco's modified Eagle's medium/nutrient mixture F-12 (DMEM/F-12) with 5% FBS and pen/strep.
In vitro Lac-Phe Production assay. Cells were plated in 12-well plates at 70-80% confluence. The next day, cells were washed two times with PBS and incubated in 0.5 ml serum free media. After overnight incubation, 400 μl of media was removed and 20 μl of 1 M hydrochloride added to acidify the media and protonate Lac-Phe. 400 μl of ethyl acetate was added into each sample and vortexed for 30 seconds to extract Lac-Phe into the organic layer. 300 μl from the top layer was transferred to a new Eppendorf tube and dried down under a stream of nitrogen. The residue was re-suspended in 100 ul of an 80:20 mixture of acetonitrile/water. Cells were kept on ice to harvest the lysate. 150 μl of PBS was added into each well and the cells scraped into an Eppendorf tube. This step was repeated again to ensure all cells have been harvested. […]

[11] = system: primary peritoneal macrophages; experiment: In vitro Lac-Phe production assay with added lactate, primary macrophages; type: cell-based, mice; details: lactate 25 mM in conditioned media
Experimental: Primary peritoneal macrophage isolation. Mice were injected with 2 ml of 3% brewer thioglycollate medium (Fisher, B111716) and the macrophage elicitation allowed to proceed for 3 days. For the macrophage isolation, mice were euthanized with CO2 and the abdominal skin peeled back to expose the peritoneal wall. 10 ml of ice-cold calcium and magnesium free DPBS was injected into the peritoneal cavity, taking care not to puncture the organs. The mice were gently massaged and the fluid aspirated from the peritoneum using the same syringe and needle. The fluid was dispensed into a 50 ml falcon tube on ice. Cells were then centrifuged at 4° C. for 10 minutes at 400×g. The supernatant was discarded and the cells re-suspended in cold DMEM/F-12 containing 10% FBS and pen/strep. Cells were allowed to adhere in the incubator for at least 2 hours then washed three times in warm PBS to remove non-adherent cells. Fresh media was added to the cells and experiments performed within 1-2 days after the isolation.
In vitro Lac-Phe Production assay. Cells were plated in 12-well plates at 70-80% confluence. The next day, cells were washed two times with PBS and incubated in 0.5 ml serum free media. After overnight incubation, 400 μl of media was removed and 20 μl of 1 M hydrochloride added to acidify the media and protonate Lac-Phe. […]

[12] = 50 mg/kg/day IP, 10 days, DIO mice

## C[C@H](O)C(=O)N[C@@H](Cc1ccccc1)C(=O)O [Lac-Phe, N-lactoyl-phenylalanine]
[1]; 50 μM
  effect on AgRP neurons (firing frequency, resting membrane potential): rapidly inhibited
[1]; 50 μM with inhibitor cocktail
  hyperpolarization of AgRP neurons in presence of TTX, DNQX, D-AP5, bicuculline: persisted
[1]; all concentrations tested, baseline or inhibitor-treated
  AgRP neurons hyperpolarized (response ratio): > 70%
[1]; dose response, lowest active concentration
  concentration showing inhibitory activity on AgRP neurons: ≥ 1 µM
[2]; [12]
  brown fat (BAT) mass vs vehicle: −41%
  change in total body weight: −7%
  epididymal fat (eWAT) mass vs vehicle: −20%
  subcutaneous inguinal fat (iWAT) mass vs vehicle: −41%
  total lean mass, estimated by weights of other organs: unaffected
[2]; 50 mg/kg/day IP, 10 days, DIO mice, mean±SEM
  reduction in body weight: -2.8 ± 1.1 g
[2]; 50 mg/kg/day IP, 10 days, DIO mice, mean±SEM (vehicle 2.9±0.1)
  food intake, chronic treatment: 2.1±0.1 g/mouse/day
[2]; day 10, 1 g/kg glucose, 6 h fast, vs vehicle
  glucose tolerance test: improved glucose clearance
[3]; 12 h post-administration
  suppression of food intake compared to vehicle-treated mice: 52%
[3]; 12 hr
  carbon dioxide production (VCO2): did not alter
  oxygen consumption (VO2): did not alter
  respiratory exchange ratio (RER): did not alter
[3]; mean±SEM (vehicle 6.4±0.6)
  food intake over 12 h post-administration: 3.0±1.0 kcal/mouse
[3]; vs vehicle
  ambulatory activity: not different between groups
[4]
  body weight vs control: suppressed
  food intake vs control: suppressed
[5]; 1 g/kg glucose, 6 h fast
  glucose homeostasis (glucose tolerance test): improves glucose homeostasis
[5]; 9-day, 18 week male DIO mice
  body weight: suppresses
[5]; 18 week male DIO mice
  appetite (cumulative food intake): suppresses
[6]
  excitability of 5-HT-positive neurons: No effect
[7]; 50 μM
  effect on POMC neurons (firing frequency, depolarization): rapidly activate
[7]; 50 μM with inhibitor cocktail
  depolarization of POMC neurons in presence of inhibitor cocktail: persisted
[7]; dose response
  concentration required to activate POMC neurons: at least 20 μM
[8]
  excitability of SF1-positive neurons: No effect
[9]
  concentration at 30 min: 3.8 µM

## C[C@H](O)C(=O)[O-].[Na+] [lactate, sodium L-lactate]
[4]
  body weight vs control: identical to vehicle treated mice
  food intake vs control: identical to vehicle treated mice
[10]
  increase of extracellular levels of Lac-Phe: +85%
[11]
  increase of extracellular levels of Lac-Phe: +200%

## N[C@@H](Cc1ccccc1)C(=O)O [phenylalanine, L-Phenylalnine]
[4]
  body weight vs control: identical to vehicle treated mice
  food intake vs control: identical to vehicle treated mice

From US20240189266A1, “Lactoyl Amino Acids for the Treatment of Metabolic Disease” (The Board of Trustees of the Leland Stanford Junior …, priority 2021, published 2024)
